Data as given in patent EP0035856A2, “Pharmaceutical and dietary compositions” (EFAMOL LIMITED, priority 1980, dated 1981).
Read-outs that look alike come from different tables or passages of the source.

How the values were obtained:
[1] = tested on: rat mesenteric vascular bed; conditions: cited from earlier work; for inhibitory action on noradrenaline responses with intact PG synthesis versus PG synthesis blocked: PG synthesis blocked by indomethacin or by aspirin
Kidney slices (rat) = assay: Conversion of 14C-labelled DGLA and AA to PGEs in rat kidney slices; assay type: cell-based; conditions: 5 μg/ml drug, percentage of control incubation with drug vehicle alone, 10% variation is a real change
Procedure: The conversions of the precursors to the respective PGEs and TXBs in platelets and to the PGEs in kidney slices were investigated. The results are shown in the following tables and are expressed as percentages of the results obtained during control incubations when drug vehicle alone was added. A 10% variation is a reliable indication of real change.
The detailed technique with platelets is given below by way of example. That with kidney slices was essentially similar.
(1-^14C) arachidonic acid and (1-^14C) dihomo-y-linolenic acid was used, diluted with hexane to specific activities of about 2 or 5 µCi/µmol. One day expired (2 days old) human platelets were obtained and used within 48 hours of expiration. One unit was centrifuged at lOOOg for 15 minutes and the supernatant drawn off. The platelet pellet was resuspended in Tris-NaCl-EDTA buffer, made up of 0.15 M NaCl, 0.15 M Tris HC1 at pH 7.4 and 0.077 M NaEDTA (90:8:2 v/v/v). The platelets were recentrifuged, the supernatant removed and the pellet resuspended in Krebs-Henseleit buffer (without calcium) at oH 7.4. The washed platelet suspension contained about 1-2% red blood cells. All glassware used in the preparation of the platelets was siliconized.
Four equal sized 1 ml aliquots of the platelet suspension, containing 10^9 platelets/ml were incubated with e.g. 0.5 µCi 14 C-DGLA for five minutes. At the beginning of the incubation the drug under test was added to the suspensions. The reaction was stopped after five minutes by addition of 1/10 volume of 10% formic acid. The suspension was then extracted three times with ethyl acetate and the fractions pooled and dried under vacuum. The extract was then taken up with 5 ml chloroform/methanol (2/1, v/v). Recovery of radioactive material in the extract was checked by taking 50pl of the chloroform/methanol and counting by liquid scintillation. Recovery was in the range 80-95% in most experiments.
The chloroform/methanol extract was then reduced in volume to 1 ml under dry prepurified nitrogen. Thin layer chromatography was carried out on […] precoated, prescored silica gel G Uniplates (Analtech). Plates were activated by heating to 100°C for 1 hour immediately prior to use. The solvent system was chloroform:methanol: acetic acid:water (90:8:1:0.8). Reference compounds (PG's El and Fla, and thromboxane Bl) were run at the same time and visualized by phosphomolybdic acid spray followed by brief heating. The bands on the plates corresponding to the reference PGE 1,PFG la and TXB 1 were scraped off and eluted with 20 ml acetone. Each elution was then evaporated to dryness and counted by liquid scintillation (Beckman 100 LS counter). […]

Platelets (human) = assay: Conversion of 14C-labelled DGLA and AA to PGEs and TXBs in human platelets; assay type: cell-based; conditions: Platelet, 5 μg/ml drug, percentage of control incubation with drug vehicle alone
Procedure: The method is given in detail later herein but briefly human platelets are incubated with radioactive DGLA or arachidonic acid. The PGs produced during incubation are extracted by conventional means and separated by thin layer chromatography, and the amount of radioactivity appearing in each PG or related substance is counted. PGE 1, PGF la and thromboxane Bl from DGLA, and PGE 2, PFG 2a and thromboxane B2 from AA are estimated.
The conversions of the precursors to the respective PGEs and TXBs in platelets and to the PGEs in kidney slices were investigated. […] A 10% variation is a reliable indication of real change.
The chloroform/methanol extract was then reduced in volume to 1 ml under dry prepurified nitrogen. Thin layer chromatography was carried out on 500 µg precoated, prescored silica gel G Uniplates (Analtech). Plates were activated by heating to 100°C for 1 hour immediately prior to use. The solvent system was chloroform:methanol: acetic acid:water (90:8:1:0.8). Reference compounds (PG's El and Fla, and thromboxane Bl) were run at the same time and visualized by phosphomolybdic acid spray followed by brief heating. […] Each elution was then evaporated to dryness and counted by liquid scintillation (Beckman 100 LS counter). […]

[2] = read-out: PGE 1 formed from precursor acid DGLA
[3] = read-out: PGE 2 formed from precursor acid AA

SMILES | effect on responses to noradrenaline [1] | inhibitory action on noradrenaline responses with intact PG synthesis versus PG synthesis blocked [1] | further results
CCCCC/C=C\C/C=C\C/C=C\C/C=C\CCCC(=O)O [AA, arachidonic acid] | increase noradrenaline responses | – | –
CCCCC/C=C\C/C=C\C/C=C\CCCCCCC(=O)O [DGLA, dihomo-y-linolenic acid] | inhibit responses to noradrenaline | – | –
CCCCC[C@H](O)/C=C/[C@H]1[C@H](O)CC(=O)[C@@H]1CCCCCCC(=O)O [PGE 1] | inhibit responses to noradrenaline | – | –
CCN(CC)CCCC(C)Nc1ccnc2cc(Cl)ccc12 (centres unmarked) [chloroquine] | inhibits responses to noradrenaline | more potent when endogenous prostaglandin synthesis is intact | activity at 5 µg/mL (Kidney slices (rat); [2]): 129%; activity at 5 µg/mL (Kidney slices (rat); [3]): 101%; activity at 5 µg/mL (Platelets (human); [2]): 132%; activity at 5 µg/mL (Platelets (human); [3]): 98%; activity at 5 µg/mL (Platelets (human); read-out: TXB 1 formed from precursor acid DGLA): 128%; activity at 5 µg/mL (Platelets (human); read-out: TXB 2 formed from precursor acid AA): 97%
CCN(CC)CCOC(=O)c1ccc(N)cc1 [procaine] | – | share this effect of chloroquine | –
CCN(CC)CCCC(C)Nc1c2ccc(Cl)cc2nc2ccc(OC)cc12 (centres unmarked) [quinacrine] | – | share this effect of chloroquine | –
C=C[C@H]1C[N@@]2CC[C@H]1C[C@@H]2[C@@H](O)c1ccnc2ccc(OC)cc12 [quinidine] | – | share this effect of chloroquine | –
C=C[C@H]1C[N@@]2CC[C@H]1C[C@H]2[C@H](O)c1ccnc2ccc(OC)cc12 [quinine] | – | share this effect of chloroquine | –
CC(=O)S[C@@H]1CC2=CC(=O)CC[C@]2(C)[C@H]2CC[C@@]3(C)[C@@H](CC[C@@]34CCC(=O)O4)[C@H]12 [spironolactone] | – | – | activity at 5 µg/mL (Kidney slices (rat); [2]): 143%; activity at 5 µg/mL (Kidney slices (rat); [3]): 67%
